The text below walks through data of PubChem BioAssay (NCI).

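Interpolation was linear, between the two tested concentrations surrounding the appropriate level; five concentrations were tested over 48 hours in 96-well plates. GI50 = concentration required for 50% inhibition of growth. At the TGI there is no net growth.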 A value given as a limit tells only on which side of the number the result lay.

Among the test systems are K-562 leukemia; HCT-116 colon; OVCAR-4 ovarian; HCC-2998 colon; KM12 colon; MCF7 breast; RXF 393 renal; LOX IMVI melanoma; HCT-15 colon; IGROV1 ovarian.
What all share (experiment): NCI anticancer screen, dose series, 48 h

Consider `C=C1/C(=C\C=C2/CCC[C@]3(C)[C@@H]([C@H](C)CCCC(C)(C)O)CC[C@@H]23)C[C@@H](OC(=O)CBr)C[C@@H]1O`, for which the GI50 in the assay with K-562 leukemia was 2.75 µM; with HCT-116 colon it was 2.22 µM; with OVCAR-4 ovarian it was 0.329 µM; in the assay on HCC-2998 colon it was 13.6 µM; in the assay on KM12 colon it was 0.4 µM; in the assay with MCF7 breast, 1.38 µM. For the same molecule, the GI50 in the assay on RXF 393 renal is 2.6 µM; with LOX IMVI melanoma, 0.147 µM; with HCT-15 colon, 1.48 µM; in the assay on IGROV1 ovarian it was 0.0604 µM. For the same molecule, the TGI with K-562 leukemia is > 33.9 µM; with HCT-116 colon, 5.9 µM; in the assay on OVCAR-4 ovarian, 1.6 µM; with HCC-2998 colon, 27.5 µM; in the assay on KM12 colon it was 3.03 µM; in the assay with MCF7 breast it was 5.74 µM. Also, the TGI with RXF 393 renal is 7.41 µM; in the assay with LOX IMVI melanoma, 0.304 µM; in the assay on HCT-15 colon, 3.31 µM; with IGROV1 ovarian, 0.15 µM.

As for `CNCCCn1c2c(c3ccc([N+](=O)[O-])cc3c1=O)C(=O)c1cc(OC)cnc1-2`, the GI50 with K-562 leukemia is 0.0435 µM; in the assay on HCT-116 colon, 0.0283 µM; with OVCAR-4 ovarian, 0.173 µM; with HCC-2998 colon it was 0.204 µM; in the assay on KM12 colon, 0.162 µM; in the assay with MCF7 breast, 0.0132 µM. Further, the GI50 was 0.0685 µM in the assay on RXF 393 renal, 0.0259 µM with LOX IMVI melanoma, 0.119 µM in the assay with HCT-15 colon and 0.205 µM in the assay on IGROV1 ovarian. Besides, the TGI with K-562 leukemia was 1.53 µM; in the assay on HCT-116 colon, 0.186 µM; with OVCAR-4 ovarian it was 10.1 µM; in the assay with HCC-2998 colon it was 1.06 µM; in the assay with KM12 colon it was 0.593 µM; with MCF7 breast, 1.06 µM. Also, the TGI with RXF 393 renal was 0.372 µM; with LOX IMVI melanoma, 0.136 µM; in the assay with HCT-15 colon it was 0.714 µM; in the assay on IGROV1 ovarian, 2 µM.

On to `Cc1ccc(C(CC(=O)c2ccccc2)C2C(=O)NC(=O)NC2=O)cc1` (stereo not given), for which the GI50 with K-562 leukemia, with HCT-116 colon, with OVCAR-4 ovarian, with HCC-2998 colon, in the assay on KM12 colon and in the assay on MCF7 breast was > 100 µM throughout. For the same molecule, the GI50 in the assay with RXF 393 renal, in the assay with LOX IMVI melanoma, with HCT-15 colon and in the assay on IGROV1 ovarian was > 100 µM each time. The TGI in the assay with K-562 leukemia, in the assay with HCT-116 colon, in the assay on OVCAR-4 ovarian, in the assay with HCC-2998 colon, in the assay on KM12 colon and in the assay on MCF7 breast was > 100 µM in each case. The TGI with RXF 393 renal, in the assay with LOX IMVI melanoma, in the assay with HCT-15 colon and in the assay with IGROV1 ovarian was > 100 µM in each case.

On to `COc1cc2ccccc2oc1=O`, for which the TGI with K-562 leukemia, in the assay with HCT-116 colon, with OVCAR-4 ovarian, in the assay with HCC-2998 colon, in the assay on KM12 colon and with MCF7 breast was > 100 µM in each case. For the same molecule, the TGI in the assay on RXF 393 renal was 48.5 µM; in the assay with LOX IMVI melanoma, > 100 µM; in the assay on HCT-15 colon, > 100 µM; with IGROV1 ovarian, > 100 µM.

As for `Cc1cc(NCCN(C(C)C)C(C)C)nc(/N=C(\N)Nc2ccc(Cl)c(C(F)(F)F)c2)n1`, the GI50 was 0.191 µM in the assay on K-562 leukemia; 0.275 µM with HCT-116 colon; 0.697 µM with OVCAR-4 ovarian; 0.214 µM in the assay on HCC-2998 colon; 0.674 µM in the assay with KM12 colon; 0.269 µM in the assay on MCF7 breast. Also, the GI50 was 0.249 µM in the assay on RXF 393 renal, 0.193 µM in the assay with LOX IMVI melanoma, 0.276 µM in the assay on HCT-15 colon and 0.819 µM in the assay on IGROV1 ovarian. Besides, the TGI in the assay with K-562 leukemia stood at 0.411 µM; in the assay on HCT-116 colon, 2.38 µM; in the assay with OVCAR-4 ovarian, 1.97 µM; with HCC-2998 colon it was 0.469 µM; in the assay with KM12 colon, 1.79 µM; with MCF7 breast, 0.851 µM. In addition, the TGI in the assay on RXF 393 renal stood at 0.75 µM; in the assay with LOX IMVI melanoma it was 0.365 µM; in the assay with HCT-15 colon it was 0.913 µM; with IGROV1 ovarian, 2.75 µM.

Take `N#CCCN(CCCN(CCCN(C(=O)Nc1ccccc1)c1ccccc1)C(=O)Nc1ccccc1)C(=O)Nc1ccccc1`: the TGI in the assay with K-562 leukemia was > 8.75 µM; in the assay on HCT-116 colon it was > 100 µM; in the assay on OVCAR-4 ovarian, > 100 µM; with HCC-2998 colon, > 100 µM; in the assay with KM12 colon, > 100 µM; in the assay with MCF7 breast, > 100 µM. The TGI in the assay with RXF 393 renal, in the assay on LOX IMVI melanoma, in the assay with HCT-15 colon and in the assay on IGROV1 ovarian was > 100 µM in each case. Also, the GI50 in the assay with HCT-116 colon was > 100 µM; in the assay with KM12 colon, 18.7 µM; in the assay on MCF7 breast, 11.9 µM; in the assay on RXF 393 renal, > 100 µM; with IGROV1 ovarian, 31.7 µM.

In the case of `O=CN/C=C/c1cccc(O)c1`, the TGI with K-562 leukemia is > 100 µM; in the assay with HCT-116 colon it was 75.6 µM; in the assay on OVCAR-4 ovarian, > 93.8 µM; in the assay on HCC-2998 colon, > 100 µM; in the assay on KM12 colon it was > 100 µM; with MCF7 breast it was > 68.4 µM. Also, the TGI in the assay with RXF 393 renal is 85.1 µM; in the assay with LOX IMVI melanoma, 69.1 µM; in the assay on HCT-15 colon it was > 100 µM; in the assay with IGROV1 ovarian, > 88.2 µM.

Consider `CCCc1cc(=O)[nH]c(-n2nc(C)cc2C)n1`, for which the GI50 in the assay on K-562 leukemia was 3.4 µM; in the assay with HCT-116 colon, 3.3 µM; in the assay with OVCAR-4 ovarian it was 4.68 µM; in the assay with HCC-2998 colon, 14.3 µM; with KM12 colon it was 5.25 µM; with MCF7 breast it was 4.31 µM. In addition, the GI50 is 18.6 µM in the assay on RXF 393 renal, 2.81 µM in the assay on LOX IMVI melanoma, 1.75 µM in the assay with HCT-15 colon and 2.31 µM in the assay with IGROV1 ovarian. Further, the TGI is > 100 µM in the assay on K-562 leukemia; 67.3 µM with HCT-116 colon; > 100 µM with OVCAR-4 ovarian; > 100 µM in the assay with HCC-2998 colon; > 100 µM in the assay on KM12 colon; > 100 µM in the assay with MCF7 breast. Moreover, the TGI in the assay with RXF 393 renal, with LOX IMVI melanoma, in the assay on HCT-15 colon and in the assay on IGROV1 ovarian was > 100 µM each time.

With `CCN(Cc1ccc(F)cc1)c1ccc(CO)c(F)c1`, the GI50 is 7.46 µM in the assay with K-562 leukemia; 2.38 µM with HCT-116 colon; 3.93 µM in the assay with OVCAR-4 ovarian; 18.7 µM with HCC-2998 colon; 22.9 µM in the assay with KM12 colon; 6.03 µM in the assay on MCF7 breast. Besides, the GI50 in the assay with RXF 393 renal was 5.47 µM; with LOX IMVI melanoma, 13.9 µM; in the assay with HCT-15 colon, 10.4 µM; with IGROV1 ovarian, 1.26 µM. The TGI in the assay with K-562 leukemia is > 73.5 µM; in the assay with HCT-116 colon it was 13.5 µM; in the assay with OVCAR-4 ovarian, 27.6 µM; in the assay on HCC-2998 colon it was 54.6 µM; in the assay with KM12 colon, > 71.8 µM; in the assay with MCF7 breast, 60.7 µM. The TGI in the assay with RXF 393 renal is 25.9 µM; with LOX IMVI melanoma it was 31.2 µM; with HCT-15 colon, > 88.1 µM; in the assay with IGROV1 ovarian, 5.03 µM.
